From patent US12227501B2, “3-amino-2-[2-(acylamino)pyridin-4-yl]-1,5,6,7-tetrahydro-4h-pyrrolo[3,2-c]pyridin-4-one as CSNK1 inhibitors” (Bayer Aktiengesellschaft, priority 2019, dated 2025)
Read-outs that look alike come from different tables or passages of the source.

What was measured:
Assay type in all cases: biochemical
human CSNK1A1 [1] = target: T1, human CSNK1A1 (Homo sapiens (Human), UniProt P48729); test: CSNK1A1 Assay 2 (ADP-Glo, 1 μM ATP); conditions: substrate biotin-Ahx-KRRRAL-pS-VASLPGL, read-out: CSNK1A1 Assay 2 IC50 [mol/l] (median)
In short: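 Full-length human CSNK1A1 as an N-terminal GST fusion (baculovirus/insect cells) with biotinylated peptide substrate biotin-Ahx-KRRRAL-pS-VASLPGL and 1 μM ATP, in HEPES pH 7.5 buffer. Compounds were pre-incubated with enzyme (~0.0375 ng/μL) for 15 min at 22 °C. Generated ADP was read by ADP-Glo luminescence as the activity measure.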

human CSNK1A1 [2] = target: T1, human CSNK1A1; test: CSNK1A1 High ATP Assay (ADP-Glo, 1 mM ATP); conditions: read-out: CSNK1A1 high ATP assay IC50 [mol/l] (median)
In short: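 Kinase activity taken as ADP generated, quantified by ADP-Glo luminescence after 1 h ATP depletion and 1 h detection at 22 °C. Enzyme is GST–full-length human CSNK1A1 (insect cell-expressed), pre-bound to compound for 15 min, with phosphopeptide substrate and 1 mM ATP.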

human CSNK1D = human CSNK1D (Homo sapiens (Human), UniProt P48730); test: CSNK1D Assay (ADP-Glo, 1 μM ATP); conditions: read-out: CSNK1D IC50 [mol/l] (median)
In short: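 Activity is read as ADP produced, by ADP-Glo luminescence after 1 h steps at 22 °C. The reaction uses 1 μM ATP, a biotinylated peptide and insect-cell-expressed GST–CSNK1D (about 0.5 ng/μL) in pH 7.5 HEPES buffer, with 15 min compound–enzyme preincubation.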

[3] = target: wild-type Epidermal Growth Factor Receptor (EGFR) (Homo sapiens (Human), UniProt P00533); test: WT-EGFR Kinase Assay (TR-FRET, 2 mM ATP)
[4] = read-out: EGFR Wildtyp- 2 mM ATP IC50 [mol/l] (median)
[5] = EGFR Wildtyp- 2 mM ATP IC50 [mol/l] (median)

T1 sequence (P48729 whole entry, the tested form may be a part): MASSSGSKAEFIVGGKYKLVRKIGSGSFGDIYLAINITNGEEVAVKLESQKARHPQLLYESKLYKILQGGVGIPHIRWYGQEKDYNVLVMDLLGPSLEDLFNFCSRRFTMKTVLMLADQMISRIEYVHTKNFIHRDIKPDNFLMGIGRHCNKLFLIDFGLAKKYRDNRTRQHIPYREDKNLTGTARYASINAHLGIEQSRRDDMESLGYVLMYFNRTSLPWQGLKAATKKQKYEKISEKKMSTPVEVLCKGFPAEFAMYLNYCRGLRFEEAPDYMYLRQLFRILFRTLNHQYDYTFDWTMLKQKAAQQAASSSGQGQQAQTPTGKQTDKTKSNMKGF
Chain of human CSNK1D (P48730 whole entry): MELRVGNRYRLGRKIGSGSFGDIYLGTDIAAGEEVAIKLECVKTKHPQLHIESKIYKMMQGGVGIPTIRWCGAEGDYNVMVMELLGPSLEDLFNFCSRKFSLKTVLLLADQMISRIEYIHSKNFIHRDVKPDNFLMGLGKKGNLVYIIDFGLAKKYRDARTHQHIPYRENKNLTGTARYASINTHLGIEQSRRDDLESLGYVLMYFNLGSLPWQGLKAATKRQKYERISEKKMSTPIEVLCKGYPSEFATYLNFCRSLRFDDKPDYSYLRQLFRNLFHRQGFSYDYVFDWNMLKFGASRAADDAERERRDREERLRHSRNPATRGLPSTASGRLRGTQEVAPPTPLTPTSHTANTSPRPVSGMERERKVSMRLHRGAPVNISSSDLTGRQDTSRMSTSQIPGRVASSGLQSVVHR
Chain of wild-type Epidermal Growth Factor Receptor (EGFR) (P00533 669-1210): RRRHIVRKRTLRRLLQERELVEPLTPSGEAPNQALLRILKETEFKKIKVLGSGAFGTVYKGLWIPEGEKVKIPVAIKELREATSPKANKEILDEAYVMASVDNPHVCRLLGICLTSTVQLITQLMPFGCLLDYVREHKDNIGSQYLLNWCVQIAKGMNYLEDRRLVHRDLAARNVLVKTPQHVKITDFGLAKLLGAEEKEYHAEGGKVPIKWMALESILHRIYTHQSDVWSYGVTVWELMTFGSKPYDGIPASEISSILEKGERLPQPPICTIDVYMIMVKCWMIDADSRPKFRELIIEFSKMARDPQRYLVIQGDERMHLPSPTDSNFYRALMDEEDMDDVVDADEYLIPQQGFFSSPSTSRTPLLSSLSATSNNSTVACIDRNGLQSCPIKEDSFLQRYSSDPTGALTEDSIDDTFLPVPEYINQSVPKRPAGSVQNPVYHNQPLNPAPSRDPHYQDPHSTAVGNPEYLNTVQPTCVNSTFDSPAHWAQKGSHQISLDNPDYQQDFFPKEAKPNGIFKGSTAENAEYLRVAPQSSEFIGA

| Compound | IC50 (human CSNK1A1 [1]) | IC50 (human CSNK1A1 [2]) | IC50 (human CSNK1D) | IC50 [3, 4] | IC50 [3, 5] |
| --- | --- | --- | --- | --- | --- |
| CN1CCc2[nH]c(-c3ccnc(NC(=O)Cc4ccc(S(C)(=O)=O)cc4)c3)c(Nc3ccccc3)c2C1=O [Example 65, N-[4-(3-anilino-5-methyl-4-oxo-4,5,6,7-tetrahydro-1H-pyrrolo[3,2-c]pyridin-2-yl)pyridin-2-yl]-2-[4-(methanesulfonyl)phenyl]acetamide] | 1.51 nM | 17.5 nM | 5.46 nM | 490 nM | – |
| CC1Cc2[nH]c(-c3ccnc(NC(=O)C(CC(F)F)c4ccc(F)cc4)c3)c(Nc3ccccc3F)c2C(=O)N1C (single isomer, unassigned; (-)) [Example 107, (−)-4,4-difluoro-N-{4-[3-(2-fluoroanilino)-5,6-dimethyl-4-oxo-4,5,6,7-tetrahydro-1H-pyrrolo[3,2-c]pyridin-2-yl]pyridin-2-yl}-2-(4-fluorophenyl)butanamide] | 45.7 nM | 3160 nM | 59.2 nM | > 20000 nM | – |
| CC1(C)Cc2[nH]c(-c3ccnc(NC(=O)C(CN)c4ccc(F)cc4)c3)c(Nc3ccccc3)c2C(=O)N1 (single isomer, unassigned; enantiomer 1) [Example 140, 3-amino-N-[4-(3-anilino-6,6-dimethyl-4-oxo-4,5,6,7-tetrahydro-1H-pyrrolo[3,2-c]pyridin-2-yl)pyridin-2-yl]-2-(4-fluorophenyl)propanamide (Enantiomer 1)] | 4.1 nM | 56.9 nM | 9.95 nM | – | > 20000 nM |
| CC1Cc2[nH]c(-c3ccnc(NC(=O)C(CC(F)F)c4ccc(F)cc4)c3)c(Nc3ccccc3F)c2C(=O)N1C (single isomer, unassigned; (+)) [Example 103, (+)-(2RS)-4,4-difluoro-N-{4-[(6R*)-3-(2-fluoroanilino)-5,6-dimethyl-4-oxo-4,5,6,7-tetrahydro-1H-pyrrolo[3,2-c]pyridin-2-yl]pyridin-2-yl}-2-(4-fluorophenyl)butanamide] | 12.8 nM | 268 nM | 17.3 nM | – | > 20000 nM |
| CN(C)CCNC(=O)c1ccc(CC(=O)Nc2cc(-c3[nH]c4c(c3Nc3ccccc3)C(=O)N(C)CC4)ccn2)cc1 [Example 155, 4-(2-{[4-(3-anilino-5-methyl-4-oxo-4,5,6,7-tetrahydro-1H-pyrrolo[3,2-c]pyridin-2-yl)pyridin-2-yl]amino}-2-oxoethyl)-N-[2-(dimethylamino)ethyl]benzamide] | 3.12 nM | 48.5 nM | 7.01 nM | 476 nM | – |
| O=C1NC2(CCC2)Cc2[nH]c(-c3ccnc(NC(=O)C(CC(F)F)c4ccc(F)cc4)c3)c(Nc3ccccc3)c21 (racemic) [Example 54, N-[4-(3′-anilino-4′-oxo-1′,4′,5′,7′-tetrahydrospiro[cyclobutane-1,6′-pyrrolo[3,2-c]pyridin]-2′-yl)pyridin-2-yl]-4,4-difluoro-2-(4-fluorophenyl)butanamide] | 4.62 nM | 14.6 nM | 5.5 nM | – | > 20000 nM |
| O=C(Cc1ccc(F)cc1)Nc1cc(-c2[nH]c3c(c2Nc2ccccc2)C(=O)N(CC2CC2)CC3)ccn1 [Example 20, N-{4-[3-anilino-5-(cyclopropylmethyl)-4-oxo-4,5,6,7-tetrahydro-1H-pyrrolo[3,2-c]pyridin-2-yl]pyridin-2-yl}-2-(4-fluorophenyl)acetamide] | 9.72 nM | 1660 nM | 24.2 nM | > 20000 nM | 18100 nM |
| CC1Cc2[nH]c(-c3ccnc(NC(=O)Cc4ccc(F)cc4)c3)c(Nc3ccccc3)c2C(=O)N1C (racemic) [Example 88, N-{4-[3-anilino-5,6-dimethyl-4-oxo-4,5,6,7-tetrahydro-1H-pyrrolo[3,2-c]pyridin-2-yl]pyridin-2-yl}-2-(4-fluorophenyl)acetamide] | 2.33 nM | 65.1 nM | 5.18 nM | – | 727 nM |
| CC(C(=O)Nc1cc(-c2[nH]c3c(c2Nc2ccccc2)C(=O)N(C)CC3)ccn1)c1ccc(Cl)cc1 (racemic) [Example 79, N-[4-(3-anilino-5-methyl-4-oxo-4,5,6,7-tetrahydro-1H-pyrrolo[3,2-c]pyridin-2-yl)pyridin-2-yl]-2-(4-chlorophenyl)propanamide] | 8.93 nM | 337 nM | 19.5 nM | – | > 20000 nM |
| CC1Cc2[nH]c(-c3ccnc(NC(=O)Cc4ccncc4)c3)c(Nc3ccccc3)c2C(=O)N1C (single isomer, unassigned; (+)) [Example 98, (+)-N-{4-[(6R*)-3-anilino-5,6-dimethyl-4-oxo-4,5,6,7-tetrahydro-1H-pyrrolo[3,2-c]pyridin-2-yl]pyridin-2-yl}-2-(pyridin-4-yl)acetamide] | 4.16 nM | 149 nM | 6.13 nM | – | 4340 nM |
| CC1Cc2[nH]c(-c3ccnc(NC(=O)Cc4ccncc4)c3)c(Nc3ccccc3)c2C(=O)N1C (single isomer, unassigned; (-)) [Example 99, (−)-N-{4-[(6S*)-3-anilino-5,6-dimethyl-4-oxo-4,5,6,7-tetrahydro-1H-pyrrolo[3,2-c]pyridin-2-yl]pyridin-2-yl}-2-(pyridin-4-yl)acetamide] | 3.78 nM | 25.9 nM | 5.1 nM | – | 329 nM |
| O=C(Cc1ccc(F)cc1)Nc1cc(-c2[nH]c3c(c2Nc2ccccc2Cl)C(=O)NCC3)ccn1 [Example 13, N-{4-[3-(2-chloroanilino)-4-oxo-4,5,6,7-tetrahydro-1H-pyrrolo[3,2-c]pyridin-2-yl]pyridin-2-yl}-2-(4-fluorophenyl)acetamide] | 1.9 nM | 37 nM | 7.06 nM | 1050 nM | – |
| CC(C(=O)Nc1cc(-c2[nH]c3c(c2Nc2ccccc2F)C(=O)N(C)CC3)ccn1)c1ccc(F)cc1 (single isomer, unassigned) [Example 42, N-{4-[3-(2-fluoroanilino)-5-methyl-4-oxo-4,5,6,7-tetrahydro-1H-pyrrolo[3,2-c]pyridin-2-yl]pyridin-2-yl}-2-(4-fluorophenyl)propanamide] | 2.4 nM | 57.2 nM | 4.92 nM | > 20000 nM | – |
| O=C1NC2(CCC2)Cc2[nH]c(-c3ccnc(NC(=O)C(CC(F)F)c4ccc(F)cc4)c3)c(Nc3ccccc3)c21 (single isomer, unassigned; (+)) [Example 55, (+)-N-[4-(3′-anilino-4′-oxo-1′,4′,5′,7′-tetrahydrospiro[cyclobutane-1,6′-pyrrolo[3,2-c]pyridin]-2′-yl)pyridin-2-yl]-4,4-difluoro-2-(4-fluorophenyl)butanamide] | 4.25 nM | 9.1 nM | 4.38 nM | – | 1170 nM |
| CC1(C)Cc2[nH]c(-c3ccnc(NC(=O)Cc4ccc(F)cc4)c3)c(Nc3cccc(F)c3)c2C(=O)N1 [Example 119, N-{4-[3-(3-fluoroanilino)-6,6-dimethyl-4-oxo-4,5,6,7-tetrahydro-1H-pyrrolo[3,2-c]pyridin-2-yl]pyridin-2-yl}-2-(4-fluorophenyl)acetamide] | 5.65 nM | 354 nM | 10.8 nM | 2540 nM | – |
| CN1CCc2[nH]c(-c3ccnc(NC(=O)Cc4cccnc4)c3)c(Nc3ccccc3)c2C1=O [Example 67, N-[4-(3-anilino-5-methyl-4-oxo-4,5,6,7-tetrahydro-1H-pyrrolo[3,2-c]pyridin-2-yl)pyridin-2-yl]-2-(pyridin-3-yl)acetamide] | 2.41 nM | 44.6 nM | 3.79 nM | 997 nM | – |
